Earlier results on three compounds are cited in patent publication US8399018B2, “Controlled release ion channel modulator compositions and methods for the treatment of otic disorders” (priority 2008, dated 2013).

In one data set the test system is tinnitus. The conditions noted are these: administered by IV.
The test system of the next data set is V2-R. Particulars: infusion into the scala tympani.
The next data set has as its system guinea pigs. The conditions noted are these: chronic administration.

For `CCN(CC)CC(=O)Nc1c(C)cccc1C` [Lidocaine], the “sufferers in whom noise associated with tinnitus is reduced or eliminated” value in the data set on tinnitus is 60-80%.

As to `Cc1ccccc1C(=O)Nc1ccc(C(=O)N2CCCC(N(C)C)c3ccccc32)cc1` (stereo not drawn) [OPC-31260], the “reduction of Meniere's disease symptoms” value in the data set on V2-R was “marked reduction”.

`NC(=O)CC[C@@H]1NC(=O)[C@H](Cc2ccccc2)NC(=O)[C@H](Cc2ccc(O)cc2)NC(=O)[C@@H](N)CSSC[C@@H](C(=O)N2CCC[C@H]2C(=O)N[C@@H](CCCN=C(N)N)C(=O)NCC(N)=O)NC(=O)[C@H](CC(N)=O)NC1=O` [VP, vasopressin]: in the data set with guinea pigs, the “induction of endolymphatic hydrops” value is reported as “induces endolymphatic hydrops”.
